Test results reported in the supplement of paper PMC10307832.

Assays:
Assay in all cases: relative viability (nuclei count vs DMSO), 5 days (fraction); higher = more cells survive
[1] = compound: C1=CC=C2C(=C1)N=C(S2)C(C#N)C3=NC(=NC=C3)NCCC4=CN=CC=C4 + C[C@@H](Oc1cc(-c2cnn(C3CCNCC3)c2)cnc1N)c1c(Cl)ccc(F)c1Cl [Crizotinib] (partner 1 µM)
In short: (§1)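 Relative viability equals treated-well nuclei counts divided by vehicle-well nuclei counts. Counts came from 4× images of lung cancer cell lines grown in 1536-well plates for 5 days after pin-tool dosing on the day after seeding. Dosing used one drug alone or a fixed anchor-drug dose plus five library-drug doses (not always all listed) in √10 steps, and values are medians of duplicate plates.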

NVP-TAE684 + AZD7762 = compound: COc1cc(N2CCC(N3CCN(C)CC3)CC2)ccc1Nc1ncc(Cl)c(Nc2ccccc2S(=O)(=O)C(C)C)n1 [NVP-TAE684] + NC(=O)Nc1cc(-c2cccc(F)c2)sc1C(=O)N[C@H]1CCCNC1 [AZD7762] (partner 0.2 µM)
In short: as §1

CUDC-101 + Alpelisib = compound: C#Cc1cccc(Nc2ncnc3cc(OC)c(OCCCCCCC(=O)NO)cc23)c1 [CUDC-101] + Cc1nc(NC(=O)N2CCC[C@H]2C(N)=O)sc1-c1ccnc(C(C)(C)C(F)(F)F)c1 [Alpelisib] (partner 2 µM)
In short: as §1

NVP-TAE684 + Linsitinib = compound: COc1cc(N2CCC(N3CCN(C)CC3)CC2)ccc1Nc1ncc(Cl)c(Nc2ccccc2S(=O)(=O)C(C)C)n1 [NVP-TAE684] + C[C@]1(O)C[C@@H](c2nc(-c3ccc4ccc(-c5ccccc5)nc4c3)c3c(N)nccn32)C1 [Linsitinib] (partner 1 µM)
In short: as §1

NVP-TAE684 + Luminespib = compound: COc1cc(N2CCC(N3CCN(C)CC3)CC2)ccc1Nc1ncc(Cl)c(Nc2ccccc2S(=O)(=O)C(C)C)n1 [NVP-TAE684] + CCNC(=O)c1noc(-c2cc(C(C)C)c(O)cc2O)c1-c1ccc(CN2CCOCC2)cc1 [Luminespib] (partner 0.01 µM)
In short: as §1

Row | Cell Line | relative viability ([1]; first compound 0.005 µM) | relative viability ([1]; first compound 0.01581 µM) | relative viability ([1]; first compound 0.05 µM) | relative viability ([1]; first compound 0.1581 µM) | relative viability ([1]; first compound 0.5 µM) | relative viability (NVP-TAE684 + AZD7762; first compound 0.2 µM) | relative viability (NVP-TAE684 + AZD7762; first compound 0.6325 µM) | relative viability (NVP-TAE684 + AZD7762; first compound 2 µM) | relative viability (CUDC-101 + Alpelisib; first compound 0.01 µM) | relative viability (CUDC-101 + Alpelisib; first compound 0.03162 µM) | relative viability (CUDC-101 + Alpelisib; first compound 0.1 µM) | relative viability (CUDC-101 + Alpelisib; first compound 0.3162 µM) | relative viability (CUDC-101 + Alpelisib; first compound 1 µM) | relative viability (NVP-TAE684 + Linsitinib; first compound 0.2 µM) | relative viability (NVP-TAE684 + Linsitinib; first compound 0.6325 µM) | relative viability (NVP-TAE684 + Linsitinib; first compound 2 µM) | relative viability (NVP-TAE684 + Luminespib; first compound 0.2 µM) | relative viability (NVP-TAE684 + Luminespib; first compound 0.6325 µM) | relative viability (NVP-TAE684 + Luminespib; first compound 2 µM)
1 | HCC-78 | 0.325 | 0.36 | 0.325 | 0.491 | 0.317 | 0.603 | 0.52 | 0.376 | 0.288 | 0.282 | 0.452 | 0.256 | 0.146 | 0.403 | 0.359 | 0.294 |  |  | 
2 | HCC-366 | 0.24 | 0.458 | 0.564 | 0.844 | 0.378 | 0.269 | 0.194 | 0.218 | 0.555 | 0.197 | 0.437 | 0.547 | 0.337 | 0.605 | 0.621 | 0.455 |  |  | 
3 | IA-LM |  | 0.985 | 0.922 | 0.808 | 0.808 |  |  |  | 0.676 | 0.769 | 0.678 | 0.745 | 0.388 | 0.386 | 0.503 | 0.627 |  |  | 
4 | NCI-H520 | 0.564 | 0.856 | 0.947 | 0.882 | 0.569 |  |  |  | 1.09 |  | 0.791 | 0.706 | 0.373 | 0.911 | 0.986 | 0.45 | 0.189 | 0.219 | 0.219
5 | NCI-H522 |  |  |  |  |  | 0.91 | 0.938 | 0.744 |  |  |  |  |  |  |  |  | 0.925 | 1.28 | 1.02
6 | NCI-H661 | 1.24 | 1.26 | 0.99 | 1.06 | 0.98 |  |  |  | 0.792 | 0.609 | 0.794 | 0.575 | 0.595 | 0.454 | 0.58 | 0.625 | 1 | 0.883 | 
7 | NCI-H1299 | 0.943 | 0.964 | 0.989 | 0.95 | 0.871 |  |  |  | 1.08 | 1 | 1.11 | 1.06 | 1.05 | 0.915 | 1.02 | 0.909 |  |  | 
8 | NCI-H1395 |  |  |  |  |  | 0.417 | 0.367 | 0.397 | 0.993 | 0.998 | 1.1 | 1.18 | 0.823 | 1.3 | 0.766 | 0.862 | 0.686 | 0.834 | 0.732
9 | NCI-H1563 | 0.86 | 0.843 | 0.838 | 0.814 | 0.815 |  |  |  | 0.919 | 0.815 | 0.925 | 0.942 | 0.882 | 1.07 | 1.25 |  | 0.542 | 0.548 | 0.407
10 | NCI-H1623 |  |  |  |  |  |  |  |  |  |  |  |  |  |  |  |  | 0.531 | 0.54 | 0.322
11 | NCI-H1648 |  |  |  |  |  | 0.677 | 0.56 | 0.399 |  |  |  |  |  |  |  |  |  |  | 
12 | NCI-H1650 | 0.609 | 0.852 | 0.865 | 1.01 | 0.57 |  |  |  |  |  |  |  |  |  |  |  | 0.184 | 0.206 | 0.182
13 | NCI-H1703 | 0.666 | 0.684 | 0.536 | 0.542 | 0.458 | 0.0907 | 0.102 | 0.0966 | 0.303 |  | 0.322 | 0.53 | 0.506 | 0.862 | 0.932 | 0.588 |  |  | 
14 | NCI-H1793 |  |  |  |  |  | 0.479 | 0.247 | 0.169 | 0.796 | 0.41 | 0.658 | 0.627 | 0.546 | 0.734 | 0.857 | 0.9 | 0.164 | 0.168 | 0.144
15 | NCI-H2009 | 1 | 0.991 | 0.97 | 1.08 | 0.976 |  |  |  | 1.13 | 1.1 | 1.14 | 1.07 | 1.04 | 1.08 | 1.21 | 0.986 | 0.925 | 1.05 | 0.944
16 | NCI-H2023 | 0.592 | 0.568 | 0.604 | 0.706 | 0.483 |  |  |  | 0.552 | 0.581 | 0.564 | 0.663 | 0.565 | 0.517 | 0.669 | 0.265 | 0.792 | 0.828 | 0.215
17 | NCI-H2170 |  | 1.33 | 1.1 | 1.31 | 1.05 | 1.04 | 0.814 | 0.785 | 0.88 | 0.744 | 0.724 | 0.658 | 0.47 |  |  |  | 0.747 | 0.618 | 0.663
18 | NCI-H2228 | 0.464 | 0.444 | 0.483 | 0.454 | 0.386 |  |  |  | 0.795 | 0.802 | 0.625 | 0.563 | 0.491 | 0.458 | 0.321 | 0.285 | 0.142 | 0.116 | 0.0834
19 | NCI-H2342 |  |  |  |  |  | 0.463 | 0.437 | 0.349 |  |  |  |  |  |  |  |  | 0.742 | 0.845 | 0.647
20 | SK-LU-1 |  | 0.853 | 0.95 | 1.16 | 0.907 |  |  |  | 1.18 | 1.05 | 1.11 | 0.812 | 0.505 | 1.19 | 1.2 | 0.693 | 0.188 | 0.217 | 0.167
21 | SK-MES-1 | 1.11 | 1.12 | 0.99 | 1.14 | 0.902 |  |  |  | 0.798 | 0.877 | 0.879 | 0.874 | 0.592 | 0.985 | 1.05 | 0.837 | 0.842 | 0.76 | 0.321
22 | SW 900 |  |  |  |  |  | 0.526 | 0.476 | 0.445 |  |  |  |  |  |  |  |  | 0.164 | 0.154 | 0.158
23 | SW 1573 | 0.753 | 0.809 | 0.722 | 0.793 | 0.785 |  |  |  | 0.861 | 0.797 | 0.852 | 1.08 | 0.739 | 0.907 | 0.692 | 0.795 | 0.185 | 0.0996 | 0.0857
